Source: US9587005B2 (priority 2010, dated 2017)
Like-named read-outs stand apart in the source and are kept apart here. *1 amine or outer side, *2 acyl side, *3 side chain or, on linkers, in order; H or OH if unused. Where a SMILES comes first, the peptide text is derived from it. Bridges are numbered along the chain shown (N, C = ends). Where no end group is shown, it is not given here. Side-chain parts run from the residue outwards. [ ]: non-standard residue; d: D form. The star is where a group is joined. Phe(4-NH2) = Nc1ccc(C[C@H](N)C(=O)O)cc1; γGlu = O=C(O)[C@H](CCC(=O)[*:2])N[*:1]; X6 = CCCCCCCCCCCCCCCCC(CC(=O)*)C(=O)O; Palmitoyl = CCCCCCCCCCCCCCCC(=O)*; Aib = CC(C)(N)C(=O)O

What was measured:
Type in all cases: cell-based
GIP receptor = biological target: T1, GIP receptor (Homo sapiens, UniProt P48546); assay: cAMP induction, firefly luciferase reporter assay in HEK293 cells co-transfected with GIP receptor; settings: for GIPR relative activity: Table 3, relative to the activity of the native hormone
T1 sequence (P48546 22-466): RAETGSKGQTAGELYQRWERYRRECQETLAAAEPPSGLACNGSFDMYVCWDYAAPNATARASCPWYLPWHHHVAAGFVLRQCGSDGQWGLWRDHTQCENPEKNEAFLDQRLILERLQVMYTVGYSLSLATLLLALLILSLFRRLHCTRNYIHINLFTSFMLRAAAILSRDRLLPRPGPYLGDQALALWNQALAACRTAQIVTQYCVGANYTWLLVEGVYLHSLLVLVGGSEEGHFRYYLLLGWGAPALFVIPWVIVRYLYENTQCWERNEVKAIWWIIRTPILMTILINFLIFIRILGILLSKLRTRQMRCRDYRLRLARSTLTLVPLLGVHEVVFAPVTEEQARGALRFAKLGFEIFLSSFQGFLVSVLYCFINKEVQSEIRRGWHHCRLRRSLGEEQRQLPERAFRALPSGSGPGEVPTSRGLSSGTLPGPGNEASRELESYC

glucagon receptor = biological target: T2, glucagon receptor (Homo sapiens, UniProt P47871); assay: cAMP induction, firefly luciferase reporter assay in HEK293 cells co-transfected with glucagon receptor; settings: for GR relative activity: Table 3, relative to the activity of the native hormone
T2 construct: expressed in transfected cells; host or cells: HEK293
T2 sequence (P47871 26-477): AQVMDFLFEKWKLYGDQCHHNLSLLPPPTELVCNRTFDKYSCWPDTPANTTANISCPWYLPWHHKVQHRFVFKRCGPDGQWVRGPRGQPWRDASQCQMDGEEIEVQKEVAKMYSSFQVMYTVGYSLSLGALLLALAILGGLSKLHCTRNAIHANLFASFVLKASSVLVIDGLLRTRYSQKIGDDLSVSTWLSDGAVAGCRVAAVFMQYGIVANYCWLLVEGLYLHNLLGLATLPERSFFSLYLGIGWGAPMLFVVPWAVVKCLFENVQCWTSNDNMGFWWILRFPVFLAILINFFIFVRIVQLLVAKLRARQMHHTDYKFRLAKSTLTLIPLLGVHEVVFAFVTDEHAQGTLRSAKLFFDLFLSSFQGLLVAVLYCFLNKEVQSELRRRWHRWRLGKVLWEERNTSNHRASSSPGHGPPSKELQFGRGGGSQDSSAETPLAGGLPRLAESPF
Source text: (§1) This example describes an exemplary method of testing the biological activity of the peptides of the present disclosures, which method involves assaying cAMP synthesis.

GLP-1 receptor = biological target: T3, GLP-1 receptor (Homo sapiens, UniProt P43220); assay: cAMP induction, firefly luciferase reporter assay in HEK293 cells co-transfected with GLP-1 receptor; settings: for GLP-1R relative activity: Table 3, relative to the activity of the native hormone
T3 construct: expressed in transfected cells; host or cells: HEK293
T3 sequence (P43220 24-463): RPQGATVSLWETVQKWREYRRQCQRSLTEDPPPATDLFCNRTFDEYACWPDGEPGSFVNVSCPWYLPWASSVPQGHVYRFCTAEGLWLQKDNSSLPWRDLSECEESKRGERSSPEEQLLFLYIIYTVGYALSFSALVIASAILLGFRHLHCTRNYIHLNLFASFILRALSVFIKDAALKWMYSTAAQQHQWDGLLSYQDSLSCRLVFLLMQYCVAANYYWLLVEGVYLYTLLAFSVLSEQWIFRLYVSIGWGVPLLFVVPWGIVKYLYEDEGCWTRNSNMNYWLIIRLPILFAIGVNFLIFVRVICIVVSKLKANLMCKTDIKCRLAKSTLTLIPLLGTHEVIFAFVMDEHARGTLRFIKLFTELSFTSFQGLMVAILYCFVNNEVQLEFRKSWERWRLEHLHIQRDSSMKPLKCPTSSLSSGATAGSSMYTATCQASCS
Source text: as §1

[1] = EC50 (nM) at GIP receptor, Table 16, Example 24
[2] = EC50 (nM) at glucagon receptor, Table 16, Example 24
[3] = EC50 (nM) at GLP-1 receptor, Table 16, Example 24
[4] = Table 3, Example 8, read-out: GIPR EC50
[5] = Table 3, Example 8, read-out: GLP-1R EC50

GIPR relative activity (GIP receptor) | GR relative activity (glucagon receptor) [%] | GLP-1R relative activity (GLP-1 receptor) [%] | EC50 (GIP receptor; [4]) [nM] | EC50 (GLP-1 receptor; [5]) [nM] | Compound | other results
 |  |  |  |  | CCCCCCCCCCCCCCCC(=O)N[C@@H](CCC(=O)NCCCC[C@H](NC(=O)[C@H](CC(=O)O)NC(=O)[C@H](CO)NC(=O)[C@@H](NC(=O)[C@H](Cc1ccccc1)NC(=O)[C@@H](NC(=O)CNC(=O)[C@H](CCC(N)=O)NC(=O)C(C)(C)NC(=O)[C@@H](N)Cc1c[nH]cn1)[C@@H](C)O)[C@@H](C)O)C(=O)N[C@@H](CO)C(=O)N[C@@H](CCCCN)C(=O)N[C@@H](Cc1ccc(O)cc1)C(=O)N[C@@H](CC(C)C)C(=O)N[C@@H](CC(=O)O)C(=O)N[C@@H](CCC(=O)O)C(=O)N[C@@H](CCCNC(=N)N)C(=O)N[C@@H](C)C(=O)N[C@@H](C)C(=O)N[C@@H](CCC(N)=O)C(=O)N[C@@H](CC(=O)O)C(=O)N[C@@H](Cc1ccccc1)C(=O)N[C@H](C(=O)N[C@@H](CCC(N)=O)C(=O)N[C@@H](Cc1c[nH]c2ccccc12)C(=O)N[C@@H](CC(C)C)C(=O)N[C@@H](CC(C)C)C(=O)N[C@@H](CC(=O)O)C(=O)NCC(=O)NCC(=O)N1CCC[C@H]1C(=O)N[C@@H](CO)C(=O)N[C@@H](CO)C(=O)NCC(=O)N[C@@H](C)C(=O)N1CCC[C@H]1C(=O)N1CCC[C@H]1C(=O)N1CCC[C@H]1C(=O)N[C@@H](CO)C(=O)NCC(N)=O)C(C)C)C(=O)O [SEQ ID NO: 205] (H-H[Aib]QGTFTSDK([γGlu-Palmitoyl])SKYLDERAAQDFVQWLLDGGPSSGAPPPSG-NH2) | EC50 (GIP receptor; [1]): 0.004 nM; EC50 (glucagon receptor; [2]): 0.005 nM; EC50 (GLP-1 receptor; [3]): 0.002 nM
 |  |  |  |  | CCCCCCCCCCCCCCCC(=O)N[C@@H](CCC(=O)N[C@@H](CCC(=O)NCCCC[C@H](NC(=O)[C@H](CC(=O)O)NC(=O)[C@H](CO)NC(=O)[C@@H](NC(=O)[C@H](Cc1ccccc1)NC(=O)[C@@H](NC(=O)CNC(=O)[C@H](CCC(N)=O)NC(=O)C(C)(C)NC(=O)[C@@H](N)Cc1c[nH]cn1)[C@@H](C)O)[C@@H](C)O)C(=O)N[C@@H](CO)C(=O)N[C@@H](CCCCN)C(=O)N[C@@H](Cc1ccc(O)cc1)C(=O)N[C@@H](CC(C)C)C(=O)N[C@@H](CC(=O)O)C(=O)N[C@@H](CCC(=O)O)C(=O)N[C@@H](CCCNC(=N)N)C(=O)N[C@@H](C)C(=O)N[C@@H](C)C(=O)N[C@@H](CCC(N)=O)C(=O)N[C@@H](CC(=O)O)C(=O)N[C@@H](Cc1ccccc1)C(=O)N[C@H](C(=O)N[C@@H](CCC(N)=O)C(=O)N[C@@H](Cc1c[nH]c2ccccc12)C(=O)N[C@@H](CC(C)C)C(=O)N[C@@H](CC(C)C)C(=O)N[C@@H](CC(=O)O)C(=O)NCC(=O)NCC(=O)N1CCC[C@H]1C(=O)N[C@@H](CO)C(=O)N[C@@H](CO)C(=O)NCC(=O)N[C@@H](C)C(=O)N1CCC[C@H]1C(=O)N1CCC[C@H]1C(=O)N1CCC[C@H]1C(=O)N[C@@H](CO)C(=O)NCC(N)=O)C(C)C)C(=O)O)C(=O)O [SEQ ID NO: 207] (H-H[Aib]QGTFTSDK([γGlu-γGlu-Palmitoyl])SKYLDERAAQDFVQWLLDGGPSSGAPPPSG-NH2; N-terminus assumed) | EC50 (GIP receptor; [1]): 0.015 nM; EC50 (glucagon receptor; [2]): 0.005 nM; EC50 (GLP-1 receptor; [3]): 0.002 nM
0.19% | 1.18 | 13.89 | 10.3 | 0.18 | Example 8 peptide: Tyr1, AIB2, Glu16/Lys20 lactam, Leu-Ala-Gly 27-29, GPSSGAPPPS 30-39, or a peptide lacking a lactam [mt-220] | 
 |  |  |  |  | H[Aib]QGTFTSDYSKYLDERAAQDFVQWLLDGGPSSGAPPPS[Phe(4-NH2)](X6)G-NH2 [SEQ ID NO: 146] | EC50 (GIP receptor): 0.052 nM; EC50 (glucagon receptor): 0.007 nM; EC50 (GLP-1 receptor): 0.007 nM
0.20% | 0.82 | 11.26 | 9.57 | 0.222 | Example 8 peptide: Tyr1, AIB2, Glu16/Lys20 lactam, Leu-Ala-Gly 27-29, GPSSGAPPPS 30-39, or a peptide lacking a lactam [mt-217] | 
0.75% | 1.01 | 19.86 | 2.27 | 0.146 | Example 8 peptide: Tyr1, AIB2, Glu16/Lys20 lactam, Leu-Ala-Gly 27-29, GPSSGAPPPS 30-39, or a peptide lacking a lactam [mt-228] | 
1.16% | 1.56 | 29.90 | 1.47 | 0.097 | Example 8 peptide: Tyr1, AIB2, Glu16/Lys20 lactam, Leu-Ala-Gly 27-29, GPSSGAPPPS 30-39, or a peptide lacking a lactam [mt-226] | 
 |  |  |  |  | CCCCCCCCCCCCCCCC(=O)N[C@@H](CCC(=O)NCCCC[C@H](NC(=O)[C@H](CC(=O)O)NC(=O)[C@H](CO)NC(=O)[C@@H](NC(=O)[C@H](Cc1ccccc1)NC(=O)[C@@H](NC(=O)CNC(=O)[C@H](CCC(N)=O)NC(=O)C(C)(C)NC(=O)[C@@H](N)Cc1c[nH]cn1)[C@@H](C)O)[C@@H](C)O)C(=O)N[C@@H](CO)C(=O)N[C@@H](CCCCN)C(=O)N[C@@H](Cc1ccc(O)cc1)C(=O)N[C@@H](CC(C)C)C(=O)N[C@@H](CC(=O)O)C(=O)N[C@@H](CCC(=O)O)C(=O)N[C@@H](CCCNC(=N)N)C(=O)N[C@@H](C)C(=O)N[C@@H](C)C(=O)N[C@@H](CCC(N)=O)C(=O)N[C@@H](CC(=O)O)C(=O)N[C@@H](Cc1ccccc1)C(=O)N[C@H](C(=O)N[C@@H](CCC(N)=O)C(=O)N[C@@H](Cc1c[nH]c2ccccc12)C(=O)N[C@@H](CC(C)C)C(=O)N[C@@H](CC(C)C)C(=O)N[C@@H](CC(=O)O)C(=O)NCC(=O)NCC(=O)N1CCC[C@H]1C(=O)N[C@@H](CO)C(=O)N[C@@H](CO)C(=O)NCC(=O)N[C@@H](C)C(=O)N1CCC[C@H]1C(=O)N1CCC[C@H]1C(=O)N1CCC[C@H]1C(=O)N[C@@H](CO)C(N)=O)C(C)C)C(=O)O [compound 28] | EC50 (GIP receptor; EC50 (nM) at GIP Receptor, Table 4, Example 9, composite of multiple different activity assays): 0.003 nM; EC50 (GIP receptor; EC50 (nM) at GIP Receptor, Table 7, Example 13): 0.003 nM; EC50 (glucagon receptor; EC50 (nM) at Glucagon Receptor, Table 4, Example 9, composite of multiple different activity assays): 0.002 nM; EC50 (glucagon receptor; EC50 (nM) at Glucagon Receptor, Table 7, Example 13): 0.002 nM; EC50 (GLP-1 receptor; EC50 (nM) at GLP-1 Receptor, Table 4, Example 9, composite of multiple different activity assays): 0.002 nM; EC50 (GLP-1 receptor; EC50 (nM) at GLP-1 Receptor, Table 7, Example 13): 0.002 nM
 |  |  |  |  | CCCCCCCCCCCCCCCC(=O)N[C@@H](CCC(=O)NCCCCCCCCCCCC(=O)NCCCC[C@H](NC(=O)[C@H](CC(=O)O)NC(=O)[C@H](CO)NC(=O)[C@@H](NC(=O)[C@H](Cc1ccccc1)NC(=O)[C@@H](NC(=O)CNC(=O)[C@H](CCC(N)=O)NC(=O)C(C)(C)NC(=O)[C@@H](N)Cc1c[nH]cn1)[C@@H](C)O)[C@@H](C)O)C(=O)N[C@@H](CO)C(=O)N[C@@H](CCCCN)C(=O)N[C@@H](Cc1ccc(O)cc1)C(=O)N[C@@H](CC(C)C)C(=O)N[C@@H](CC(=O)O)C(=O)N[C@@H](CCC(=O)O)C(=O)N[C@@H](CCCNC(=N)N)C(=O)N[C@@H](C)C(=O)N[C@@H](C)C(=O)N[C@@H](CCC(N)=O)C(=O)N[C@@H](CC(=O)O)C(=O)N[C@@H](Cc1ccccc1)C(=O)N[C@H](C(=O)N[C@@H](CCC(N)=O)C(=O)N[C@@H](Cc1c[nH]c2ccccc12)C(=O)N[C@@H](CC(C)C)C(=O)N[C@@H](CC(C)C)C(=O)N[C@@H](CC(=O)O)C(=O)NCC(=O)NCC(=O)N1CCC[C@H]1C(=O)N[C@@H](CO)C(=O)N[C@@H](CO)C(=O)NCC(=O)N[C@@H](C)C(=O)N1CCC[C@H]1C(=O)N1CCC[C@H]1C(=O)N1CCC[C@H]1C(=O)N[C@@H](CO)C(N)=O)C(C)C)C(=O)O [SEQ ID NO: 162] | EC50 (GIP receptor; EC50 (cAMP, nmole) GIPR, Table 12, Example 19): 0.033 nM; EC50 (glucagon receptor): 0.008 nM; EC50 (GLP-1 receptor; EC50 (cAMP, nmole) GLPR, Table 12, Example 19): 0.003 nM
.31% | 0.65 | 16.56 | 6.17 | 0.151 | Example 8 peptide: Tyr1, AIB2, Glu16/Lys20 lactam, Leu-Ala-Gly 27-29, GPSSGAPPPS 30-39, or a peptide lacking a lactam [mt-219] | 

Compound | GIPR relative activity (GIP receptor) | GR relative activity (glucagon receptor) [%] | GLP-1R relative activity (GLP-1 receptor) [%] | EC50 (GIP receptor; [4]) [nM] | EC50 (GLP-1 receptor; [5]) [nM] | other results
Example 8 peptide: Tyr1, AIB2, Glu16/Lys20 lactam, Leu-Ala-Gly 27-29, GPSSGAPPPS 30-39, or a peptide lacking a lactam [mt-225] (Y[Aib]QGTFTSDYSIYLDEQAAKEFVNWLLAGGPSSGAPPPSK([Ala-Cys(PEG 40 kDa)-Ac]); lactam 16-20; not fully specified (C-terminus)) | 0.90% | 1.99 | 29.59 |  |  | 
